What was measured:
MMP-2 and MMP-9 = test: Gelatinase zymography, melanoma cells; assay type: cell-based, human; conditions: overall / dose dependence
Experimental: Gelatinase zymography was performed in 10% Novex pre-cast polyacrylamide gel (Invitrogen) in the presence of 0.1% gelatin. Culture media (20 μl) was loaded and SDS-PAGE was performed with tris-glysine SDS buffer. After electrophoresis, the gels were washed with 5% Triton X-100 for 30 minutes and stained. Protein standards were run concurrently and approximate molecular weights were determined.
The effect of EGCG on melanoma cells with basal and ascorbic acid, proline, and lysine supplementation on expression of MMPs is depicted in FIG. 9 by gelatinase zymography. […] The intensity of bands for basal and ascorbic acid, lysine and proline combination were the same.

[1] = test system: MDA-MB 231 human breast cancer cells; test: Matrigel invasion and migration, MDA-MB-231
Experimental: The studies were conducted using Matrigel (Becton Dickinson) inserts in compatible 24-well plates. Fibroblasts were seeded and grown in the wells of the plate using DMEM. When fibroblasts reached confluence, the medium was withdrawn and replaced with 750 μl of the media designated for the treatment. The cancer cells (5×10^4) suspended in 250 μl of the medium supplemented with nutrients as specified in the design of the experiment were seeded on the insert in the well. Thus both the medium on the insert and in the well contained the same supplements. The plates with the inserts were then incubated (in air-circulating incubator for MDA-MB-231 cells and 5% CO2 incubator for colon cancer cells and melanoma cells) for 18–20 hours. After incubation, the media from the wells was withdrawn. The cells on the upper surface of the inserts were gently scrubbed away with cotton swab. The cells that had penetrated the Matrigel membrane and had migrated on the lower surface of the Matrigel were stained with hemacolor stain (EM Sciences) and were visually counted under the microscope. The results were subjected to ANOVA and all the possible pairs were tested for significance at p<0.05.
The media in different studies were supplemented with ascorbic acid, proline, lysine and EGCG at concentrations as indicated.
MDA-MB 231 (ATCC) breast cancer cells were seeded on Matrigel insert in an improved Matrigel Invasion Chamber (BD). Conditioned media from normal human dermal fibroblast (Clonetics) supplemented with various agents (as indicated on FIG. 1) were added to the well. The chamber was incubated for 24 hours and the cells that had invaded the Matrigel membrane and had migrated into the lower surface of the membrane were counted.

[2] = test system: HCT116 human colon cancer cells; test: Matrigel invasion and migration, HCT116; assay type: cell-based
Experimental: The studies were conducted using Matrigel (Becton Dickinson) inserts in compatible 24-well plates. Fibroblasts were seeded and grown in the wells of the plate using DMEM. When fibroblasts reached confluence, the medium was withdrawn and replaced with 750 μl of the media designated for the treatment. The cancer cells (5×10^4) suspended in 250 μl of the medium supplemented with nutrients as specified in the design of the experiment were seeded on the insert in the well. Thus both the medium on the insert and in the well contained the same supplements. […] After incubation, the media from the wells was withdrawn. The cells on the upper surface of the inserts were gently scrubbed away with cotton swab. The cells that had penetrated the Matrigel membrane and had migrated on the lower surface of the Matrigel were stained with hemacolor stain (EM Sciences) and were visually counted under the microscope. The results were subjected to ANOVA and all the possible pairs were tested for significance at p<0.05. […]
HTCT116 (ATCC) human colon cancer cells were seeded on Matrigel insert in an improved Matrigel Invasion Chamber (BD). […] The chamber was incubated for 24 hours and the cells that had invaded the Matrigel membrane and had migrated into the lower surface of the membrane were counted.

[3] = test system: human melanoma cell line A2058; test: MTT cell proliferation/growth, melanoma cells
[4] = test system: human breast cancer cells MDA-MB-231; test: MTT cell proliferation/growth, breast cancer MDA-MB-231
[5] = test system: A2058 human melanoma cells; test: Matrigel invasion and migration, melanoma cells; assay type: cell-based; conditions: conditioned media from NHDF, 24 hours
Experimental: The studies were conducted using Matrigel (Becton Dickinson) inserts in compatible 24-well plates. Fibroblasts were seeded and grown in the wells of the plate using DMEM. When fibroblasts reached confluence, the medium was withdrawn and replaced with 750 μl of the media designated for the treatment. The cancer cells (5×10^4) suspended in 250 μl of the medium supplemented with nutrients as specified in the design of the experiment were seeded on the insert in the well. Thus both the medium on the insert and in the well contained the same supplements. The plates with the inserts were then incubated (in air-circulating incubator for MDA-MB-231 cells and 5% CO2 incubator for colon cancer cells and melanoma cells) for 18–20 hours. After incubation, the media from the wells was withdrawn. The cells on the upper surface of the inserts were gently scrubbed away with cotton swab. The cells that had penetrated the Matrigel membrane and had migrated on the lower surface of the Matrigel were stained with hemacolor stain (EM Sciences) and were visually counted under the microscope. […]
A2058 (ATCC) human melanoma cells were seeded on Matrigel insert in improved Matrigel Invasion Chamber (BD). […] The chamber was incubated for 24 hours and the cells that had invaded the Matrigel membrane and had migrated into the lower surface of the membrane were counted.

Row | Compound | expression of MMP-2 and MMP-9 (zymography bands) (MMP-2 and MMP-9) | Matrigel invasion and migration (FIG. 1) ([1]; MDA-MB 231, conditioned media from NHDF, 24 hours) | Matrigel invasion (number of invading cells) compared to non-supplemented media ([1]; MDA-MB-231, EGCG 20 μg/ml) | Matrigel invasion ([1]; MDA-MB-231, EGCG 50 μg/ml and 100 μg/ml) | Matrigel invasion of colon cancer cells (reduced to) ([2]; EGCG 20 μg/ml) | Matrigel invasion and migration (FIG. 2) ([2]; conditioned media from NHDF, 24 hours) | cell proliferation (cell number, Basal = 100) ([3]; EGCG 50 μg/ml) | cell proliferation (cell number, Basal = 100) ([3]; EGCG 10 and 20 μg/ml) | cell number compared to control ([4]; EGCG 50 μg/ml) | cell number compared to control ([4]; EGCG 100 μg/ml) | cell number compared to control ([4]; EGCG 200 μg/ml) | cell number compared to unsupplemented controls ([4]; EGCG up to 20 μg/ml) | Matrigel invasion and migration (FIG. 3) [5] | invasion reduced by ([1]; MDA-MB-231, another series, 100 μM ascorbic acid, 140 μM proline)
1 | O=C(O[C@@H]1Cc2c(O)cc(O)cc2O[C@@H]1c1cc(O)c(O)c(O)c1)c1cc(O)c(O)c(O)c1 [EGCG, (−)-epigallocatechin-3-gallate] | inhibitory effect on their expression in a dose dependent fashion | inhibitory effect | 69.5±27.4% | complete inhibition | 44.9±3.3% | inhibitory effect | 30% | Neither lysine, proline, and ascorbic acid nor EGCG at 10 and 20 μg/ml had any significant effect | 66.1±5.3% | 33.6±2% | 29.6±0.8% | did not have any significant inhibitory effect | inhibitory effect | –
2 | O=C1O[C@H]([C@@H](O)CO)C(O)=C1O [ascorbic acid] | – | – | – | – | – | – | – | – | – | – | – | – | – | 36%

From patent publication US7041699B2, “Nutrient pharmaceutical formulation comprising polyphenols and use in treatment of cancer” (Matthias Rath, priority 2002, dated 2006)
